{"source": "patent US9079838B2", "about": "“Ortho-phenylphenol compounds” (Dow Global Technologies LLC, priority 2011, dated 2015)"}
{"experiment": "Solubility of Ex. 13 Product: 10% w/w solution in AROMATIC 200 stored in −11° C. freezer", "format": "physicochemical", "details": "10% w/w in AROMATIC 200, −11° C. freezer, 2 weeks", "experimental": "Solubility of Ex. 13 Product: A solution (10% w/w) in AROMATIC 200 was prepared at room temperature. The clear solution was placed in a −11° C. freezer for 2 weeks."}
{"smiles": "O=C(Oc1ccccc1-c1ccccc1)c1ccccc1", "note": "[Ex. 13 Product, [1,1′-biphenyl]-2-yl benzoate]", "crystallization from solution on cold storage": "No visibly detectable crystallization occurred"}
{"experiment": "solubility in organic solvents at −10° C.", "format": "physicochemical", "details": "AROMATIC 200, −10° C.", "units": {"soluble at (concentration) in AROMATIC 200": "%"}}
{"smiles": "CCCCCCCCCCCCOc1ccccc1-c1ccccc1", "note": "[2-(dodecyloxy)-1,1′-biphenyl]", "soluble at (concentration) in AROMATIC 200": 10}
{"smiles": "c1ccc(-c2ccccc2OCc2ccccc2COc2ccccc2-c2ccccc2)cc1", "note": "[1,2-bis(([1,1′-biphenyl]-2-yloxy)-methyl)benzene]", "soluble at (concentration) in AROMATIC 200": 10}
{"experiment": "solubility in organic solvents at −10° C.", "format": "physicochemical", "details": "DMAc, −10° C.", "units": {"soluble at (concentration) in DMAc": "%"}}
{"smiles": "c1ccc(-c2ccccc2OCCCCOc2ccccc2-c2ccccc2)cc1", "note": "[1,4-bis([1,1′-biphenyl]-2-yloxy)butane]", "soluble at (concentration) in DMAc": 10}
{"smiles": "c1ccc(-c2ccccc2OCc2ccccc2COc2ccccc2-c2ccccc2)cc1", "note": "[1,2-bis(([1,1′-biphenyl]-2-yloxy)-methyl)benzene]", "soluble at (concentration) in DMAc": 10}
{"experiment": "solubility in organic solvents at −10° C.", "format": "physicochemical", "details": "NMP, −10° C.", "units": {"soluble at (concentration) in NMP": "%"}}
{"smiles": "c1ccc(-c2ccccc2OCCCCOc2ccccc2-c2ccccc2)cc1", "note": "[1,4-bis([1,1′-biphenyl]-2-yloxy)butane]", "soluble at (concentration) in NMP": 10}
{"smiles": "c1ccc(-c2ccccc2OCc2ccc(COc3ccccc3-c3ccccc3)cc2)cc1", "note": "[1,4-bis(([1,1′-biphenyl]-2-yloxy)-methyl)benzene]", "soluble at (concentration) in NMP": 10}
{"smiles": "c1ccc(-c2ccccc2OCc2ccccc2COc2ccccc2-c2ccccc2)cc1", "note": "[1,2-bis(([1,1′-biphenyl]-2-yloxy)-methyl)benzene]", "soluble at (concentration) in NMP": 10}
{"smiles": "c1ccc(-c2ccccc2OCc2ccc(-c3ccc(COc4ccccc4-c4ccccc4)cc3)cc2)cc1", "note": "[4,4′-bis(([1,1′-biphenyl]-2-yloxy)methyl)-1,1′-biphenyl]", "soluble at (concentration) in NMP": 10}
{"experiment": "solubility in organic solvents at −10° C.", "format": "physicochemical", "details": "dipropylene glycol dimethyl ether, −10° C.", "units": {"soluble at (concentration) in dipropylene glycol dimethyl ether": "%"}}
{"smiles": "c1ccc(-c2ccccc2OCCCCOc2ccccc2-c2ccccc2)cc1", "note": "[1,4-bis([1,1′-biphenyl]-2-yloxy)butane]", "soluble at (concentration) in dipropylene glycol dimethyl ether": 10}
{"smiles": "CCCCCCCCCCCCOc1ccccc1-c1ccccc1", "note": "[2-(dodecyloxy)-1,1′-biphenyl]", "soluble at (concentration) in dipropylene glycol dimethyl ether": 10}
{"smiles": "c1ccc(-c2ccccc2OCc2ccccc2COc2ccccc2-c2ccccc2)cc1", "note": "[1,2-bis(([1,1′-biphenyl]-2-yloxy)-methyl)benzene]", "soluble at (concentration) in dipropylene glycol dimethyl ether": 10}
{"experiment": "solubility in organic solvents at −10° C.", "format": "physicochemical", "details": "tetralin, −10° C.", "units": {"soluble at (concentration) in tetralin": "%"}}
{"smiles": "CCCCCCCCCCCCCCOc1ccccc1-c1ccccc1", "note": "[2-(tetradecyloxy)-1,1′-biphenyl]", "soluble at (concentration) in tetralin": 7.5}
{"smiles": "CCCCCCCCCCCCCCCCCCOc1ccccc1-c1ccccc1", "note": "[2-(octadecyloxy)-1,1′-biphenyl]", "soluble at (concentration) in tetralin": "< 5"}
{"smiles": "CCCCCCCCCCCCOc1ccccc1-c1ccccc1", "note": "[2-(dodecyloxy)-1,1′-biphenyl]", "soluble at (concentration) in tetralin": 10}
{"smiles": "c1ccc(-c2ccccc2OCc2ccccc2COc2ccccc2-c2ccccc2)cc1", "note": "[1,2-bis(([1,1′-biphenyl]-2-yloxy)-methyl)benzene]", "soluble at (concentration) in tetralin": 10}
{"experiment": "not given", "details": "not given", "units": {"melting point": "°C"}}
{"smiles": "c1ccc(-c2ccccc2OCCCCOc2ccccc2-c2ccccc2)cc1", "note": "[1,4-bis([1,1′-biphenyl]-2-yloxy)butane]", "melting point": "62 to 67"}
{"smiles": "CCCCCCCCCCCCCCCCCCOc1ccccc1-c1ccccc1", "note": "[2-(octadecyloxy)-1,1′-biphenyl]", "melting point": "42 to 45"}
{"smiles": "c1ccc(-c2ccccc2OCc2ccc(COc3ccccc3-c3ccccc3)cc2)cc1", "note": "[1,4-bis(([1,1′-biphenyl]-2-yloxy)-methyl)benzene]", "melting point": "140 to 142"}
{"smiles": "CCCCCCCCCCCCOc1ccccc1-c1ccccc1", "note": "[2-(dodecyloxy)-1,1′-biphenyl]", "melting point": "27 to 29"}
{"smiles": "c1ccc(-c2ccccc2OCc2ccc(-c3ccc(COc4ccccc4-c4ccccc4)cc3)cc2)cc1", "note": "[4,4′-bis(([1,1′-biphenyl]-2-yloxy)methyl)-1,1′-biphenyl]", "melting point": "149 to 151"}
